The target in one data set is T1, serotonin 1A receptor (Rattus norvegicus, UniProt P19327).
T1 construct: To the receptor fraction of the hippocampus were added a test compound and 0.5 nM of [^3H]; 8-hydroxy-dipropylaminotetralin; from tissue; host or cells: rat hippocampus membrane fraction
T1 sequence (P19327 1-422): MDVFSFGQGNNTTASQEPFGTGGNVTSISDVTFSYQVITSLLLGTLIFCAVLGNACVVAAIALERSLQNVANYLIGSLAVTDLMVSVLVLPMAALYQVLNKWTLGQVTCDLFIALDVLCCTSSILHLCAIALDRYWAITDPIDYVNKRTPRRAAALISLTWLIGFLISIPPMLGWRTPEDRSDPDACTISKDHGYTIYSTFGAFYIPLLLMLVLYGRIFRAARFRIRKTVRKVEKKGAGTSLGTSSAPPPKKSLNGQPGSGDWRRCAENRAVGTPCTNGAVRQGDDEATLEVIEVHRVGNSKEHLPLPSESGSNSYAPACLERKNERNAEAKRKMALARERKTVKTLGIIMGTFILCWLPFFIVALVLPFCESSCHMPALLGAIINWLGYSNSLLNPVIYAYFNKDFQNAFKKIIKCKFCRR
Kind of data set: Binding test on [3H] 8-hydroxy-dipropylaminotetralin, hippocampus receptor fraction. The note with it: rat hippocampus receptor fraction, 0.5 nM [3H] 8-OH-DPAT, room temperature 30 min; read-out: 5HT1. The arrangement: species or system SD rats.

The next data set concerns the target T2, serotonin 2 receptor (Rattus norvegicus, UniProt P14842).
T2 construct: To the receptor fraction of the cerebral cortex were added a test compound and 0.3 nM of [^3H] ketanserin; from tissue; host or cells: rat cerebral cortex membrane fraction
Kind of data set: Binding test on [3H] ketanserin, cerebral cortex receptor fraction. The arrangement: species or system SD rats. To be noted: 0.3 nM [3H] ketanserin, 37° C. 15 min, read-out: 5HT2.

Where a name gives a salt, the structure may show the parent alone.

T2 sequence (P14842 whole entry): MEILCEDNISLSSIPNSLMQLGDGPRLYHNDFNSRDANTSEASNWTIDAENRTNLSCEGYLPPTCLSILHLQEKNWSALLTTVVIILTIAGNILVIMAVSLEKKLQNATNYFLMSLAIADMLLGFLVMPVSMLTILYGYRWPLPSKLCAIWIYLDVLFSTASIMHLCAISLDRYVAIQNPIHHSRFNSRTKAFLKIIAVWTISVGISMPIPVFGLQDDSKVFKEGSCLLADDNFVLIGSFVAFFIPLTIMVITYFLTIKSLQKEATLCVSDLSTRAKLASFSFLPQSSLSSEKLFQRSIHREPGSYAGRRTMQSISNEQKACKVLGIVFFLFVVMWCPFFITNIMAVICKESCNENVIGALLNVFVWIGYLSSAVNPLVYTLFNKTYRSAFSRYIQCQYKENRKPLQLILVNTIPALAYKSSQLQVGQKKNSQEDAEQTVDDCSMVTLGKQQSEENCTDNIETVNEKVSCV

Consider `CCN1CCN(c2nc(-c3cc(OC)ccc3OC)cc3ccccc23)CC1.Cl`, for which the melting point – broadly, the temperature of the solid-liquid transition – was 189 to 191 °C. Take `CCC1CCN(c2nc(-c3ccc(OC)cc3)cc3ccccc23)CC1.Cl`: the melting point lay in the range of 109 to 114 °C.

Molecule `COc1ccc(-c2cc3ccccc3c(N3CCOCC3)n2)cc1.Cl` returned a melting point of 137 to 139 °C.

Molecule `COc1ccc(-c2cc3ccccc3c(NCCc3ccccn3)n2)cc1.Cl` returned a melting point of 138 to 140 °C.

Turning to `CCOc1ccc(-c2cc3ccccc3c(N3CCN(CC)CC3)n2)cc1.Cl.Cl`, the melting point was 197 to 198 °C (dec.). `CCN1CCN(c2nc(-c3ccccc3O)cc3ccccc23)CC1.Cl` registered a melting point of 228 to 230 °C. Take `CCN1CCN(c2nc(-c3cccc(OC)c3OC)cc3ccccc23)CC1` (as salt: hydrochloride): the melting point fell in the range of 122 to 123 °C. Still for that read-out and setting: the same measure for `CCN1CCN(c2nc(-c3nc(C)c(CCO)s3)cc3ccccc23)CC1` (as salt: hydrochloride): 149 to 154 °C; for `CCN1CCN(c2nc(-c3ccn(CCO)n3)cc3ccccc23)CC1` (as salt: hydrochloride): 134 to 140 °C.

In turn, `CCN1CCN(c2nc(-c3csc(C4=CCOCC4)c3)cc3ccccc23)CC1` (as salt: hydrochloride) had a melting point of 190 to 193 °C. On to `CCN1CCN(c2nc(-c3ccc(OC)cc3)cc3c(C)cccc23)CC1` (as salt: hydrochloride), for which the melting point lay within 249 to 253 °C. In turn, `CCN1CCN(c2nc(-c3ccc(OC)cc3)cc3cc(F)ccc23)CC1` (as salt: hydrochloride) registered a melting point of 131 to 135 °C. `CCN1CCN(c2nc(-c3ccc(OC)cc3)cc3cc(OC)ccc23)CC1` (as salt: hydrochloride) came in with a melting point of 218 to 220 °C.

Molecule `CCN1CCN(c2nc(-c3ccc(OC)cc3)cc3ccc(C)cc23)CC1` (as salt: hydrochloride) gave a melting point of 243 to 246 °C.

As to `CCN1CCN(c2nc(-c3ccc(OCCO)cc3)cc3ccc(F)cc23)CC1` (as salt: hydrochloride), the melting point lay in the range of 225 to 229 °C.

With `CCN1CCN(c2nc(-c3ccccc3)cc3ccc(OC)cc23)CC1` (as salt: hydrochloride), the melting point lay within 130 to 132 °C. The same measure, in the same setting: next, `CCN1CCN(c2nc(-c3ccccc3OC)cc3ccc(OC)cc23)CC1` (as salt: hydrochloride): 178 to 179 °C; `CCN1CCN(c2nc(-c3ccc(OC)cc3)cc3cccc(OC)c23)CC1` (as salt: hydrochloride): 237 to 241 °C; `CCCN1CCN(c2nc(-c3ccc(OC)cc3)cc3ccccc23)CC1` (as salt: hydrochloride): 220 to 226 °C. `CCCN1CCN(c2nc(-c3ccc(OCCO)cc3)cc3ccccc23)CC1` (as salt: hydrochloride) yielded a melting point of 220 to 225 °C. Still for that read-out and setting: the same measure for `COc1ccc(-c2cc3ccccc3c(N3CCN(C(C)C)CC3)n2)cc1` (as salt: hydrochloride): 220 °C (dec.); for `CCN1CCN(c2nc(-c3ccc(OC)cc3)cc3cnccc23)CC1` (as salt: hydrochloride): 157 to 160 °C. For `CCN1CCN(c2nc(-c3ccc(O)cc3)cc3sccc23)CC1` (as salt: hydrochloride), the melting point lay in the range of 173 to 175 °C. Same read-out and setting: the same measure for `CCN1CCN(c2nc(-c3ccc(OC)cc3)cc3cccc(C)c23)CC1` (as salt: hydrochloride): 248 to 253 °C; for `COc1ccc(-c2cc3ccccc3c(N3CCN(CCC#N)CC3)n2)cc1` (as salt: hydrochloride): 164 to 166 °C; for `CCN1CCCN(c2nc(-c3ccc(OC)cc3)cc3ccccc23)CC1` (as salt: hydrochloride): 124 to 125 °C. `CCCCc1ccc(-c2cc3ccccc3c(N3CCN(CC)CC3)n2)cc1` (as salt: hydrochloride): the melting point is 190 to 192 °C (dec.). In the case of `CCN1CCN(c2nc(-c3ccc(OCCO)c(OCCO)c3)cc3ccccc23)CC1` (as salt: hydrochloride), the melting point is 130 to 132 °C. Take `CCCC(=O)c1ccc(-c2cc3ccccc3c(N3CCN(CC)CC3)n2)cc1` (as salt: hydrochloride): the melting point was 110 to 112.5 °C (dec.). With `CCN1CCN(c2nc(-c3ccc(C4(CCO)CCOCC4)cc3)cc3ccccc23)CC1` (as salt: hydrochloride), the melting point is 138 to 139 °C. As for `CCN1CCN(c2nc(-c3ccc(OC)cc3)c(Cl)c3ccccc23)CC1` (as salt: hydrochloride), the melting point is 200.5 to 201.5 °C (dec.). For the molecule `CCN1CCN(c2nc(-c3ccc(C(=O)NC)cc3)cc3ccsc23)CC1` (as salt: hydrochloride), the melting point fell in the range of 150.5 to 152 °C. For the molecule `CCN1CCN(c2nc(-c3ccc(OCCCN)cc3)cc3ccccc23)CC1` (as salt: hydrochloride), the melting point fell in the range of 173 to 176 °C. On the same count and under the same terms, the same measure for `CCN1CCN(c2nc(-c3ccccc3OC)cc3ccccc23)CC1` (as salt: hydrochloride): 133 to 135 °C; for `COc1ccc(-c2cc3ccccc3c(N3CCN(C)CC3)n2)cc1` (as salt: hydrochloride) [Example 2, 1-(1-methylpiperazin-4-yl)-3-(4-methoxyphenyl)isoquinoline]: 134 to 136 °C. Molecule `CN1CCN(c2nc(-c3ccc(OCCO)cc3)cc3ccccc23)CC1` (as salt: hydrochloride) [Example 3, 1-(1-methylpiperazin-4-yl)-3-[4-(2-hydroxyethoxy)phenyl]isoquinoline] displayed a melting point of 131 to 144 °C.

On to `CCC(F)c1ccc(-c2cc3ccccc3c(N3CCN(CC)CC3)n2)cc1` (stereo not shown) (as salt: hydrochloride) [Example 5, 1-(4-ethylpiperazin-1-yl)-3-[4-(1-fluoropropyl)phenyl]isoquinoline Hydrochloride], for which the melting point fell in the range of 147 to 149 °C. Still for that read-out and setting: the same measure for `CCN1CCN(c2nc(-c3cccc(OC)c3)cc3ccccc23)CC1` (as salt: hydrochloride) [Example 9, 1-(4-ethylpiperazin-1-yl)-3-(3-methoxyphenyl)isoquinone Dihydrochloride]: 108 to 110 °C.

In turn, `CCN1CCN(c2nc(-c3ccc(OC)cc3OC)cc3ccccc23)CC1` (as salt: hydrochloride) [Example 12, 3-(2,4-dimethoxyphenyl)-1-(4-ethylpiperazin-1-yl)isoquinolin Dihydrochloride] registered a melting point of 145 to 148 °C. The same measure, in the same setting: next, `CCN1CCN(c2nc(-c3ccc(OC)c(OC)c3)cc3ccccc23)CC1` (as salt: hydrochloride) [Example 14, 3-(3,4-dimethoxyphenyl)-1-(4-ethylpiperazin-1-yl)isoquinoline Dihydrochloride]: 125 to 126.5 °C; `CCN1CCN(c2nc(-c3cc(OC)cc(OC)c3)cc3ccccc23)CC1` (as salt: hydrochloride) [Example 15, 3-(3,5-dimethoxyphenyl)-1-(4-ethylpiperazin-1-yl)isoquinoline Dihydrochloride]: 121 to 123 °C. The same measure, in the same setting: next, `CCN1CCN(c2nc(-c3ccc(CO)cc3)cc3ccccc23)CC1` (as salt: hydrochloride) [Example 17, 1-(4-ethylpiperazin-1-yl)-3-(4-hydroxymethylphenyl)isoquinoline hydrochloride]: 145 to 147 °C; `CCN1CCN(c2nc(-c3ccccc3OCCO)cc3ccccc23)CC1` (as salt: hydrochloride) [Example 18, 3-[2-(2-hydroxyethoxy)phenyl]-1-(4-ethylpiperazin-1-yl)isoquinoline hydrochloride]: 158 to 160 °C; `CCC(O)c1ccc(-c2cc3ccccc3c(N3CCN(CC)CC3)n2)cc1` (stereo not shown) (as salt: hydrochloride) [Example 19, 1-(4-ethylpiperazin-1-yl)-3-[4-(1-hydroxypropyl)phenyl]isoquinoline hydrochloride]: 143 to 144 °C. Molecule `CCN1CCN(c2nc(-c3ccc(CCCO)cc3)cc3ccccc23)CC1` (as salt: hydrochloride) [Example 20, 1-(4-ethylpiperazin-1-yl)-3-[4-(3-hydroxypropyl)phenyl]isoquinoline hydrochloride] gave a melting point of 116 to 119 °C. In turn, `CCN1CCN(c2nc(-c3ccc(CCCCO)cc3)cc3ccccc23)CC1` (as salt: hydrochloride) [Example 23, 3-[4-(4-hydroxybutyl)phenyl]-1-(4-ethylpiperazin-1-yl)isoquinoline hydrochloride] yielded a melting point of 140 to 144 °C.

In turn, `CCN1CCN(c2nc(-c3ccc(C(O)CCO)cc3)cc3ccccc23)CC1` (stereo not shown) (as salt: hydrochloride) [Example 24, 3-[4-(1,3-dihydroxypropyl)phenyl]-1-(4-ethylpiperazin-1-yl)isoquinoline hydrochloride] gave a melting point of 145 to 147 °C. Take `CCN1CCN(c2nc(-c3ccc(OC)cc3)cc3ccoc23)CC1` [Example 467, 7-(4-ethylpiperazin-1-yl)-5-(4-methoxyphenyl)furo[2,3-c]pyridine dihydrochloride]: the Ki on serotonin 1A receptor came out at 20.6 nM; on serotonin 2 receptor it was 93.1 nM.
